Experimental data reported in patent US20240067686A1, “NOVEL PEPTIDE CAPABLE OF INHIBITING TGF-ß SIGNALING AND USE THEREOF” (Korea Institute of Science and Technology, priority 2020, published 2024).

Key:
[1] = tested on: TGF-β cytokine released from Aspc1 cells; experiment: ELISA of TGF-β cytokine concentration in Aspc1 culture media; format: cell-based; settings: 50 ng/ml TGF-β plus peptide, 48 hours, FIG. 6
Protocol: Specifically, the pancreatic cancer cell line Aspc1 was seeded in a 96-well plate at a density of 2×10^4 cells/well, cultured for one day, and then treated with 50 ng/ml of TGF-β or TGF-β plus inhibitor (candidate peptide and control peptide) for 48 hours, and then the concentrations of the TGF-β cytokine in the cancer cell culture media were analyzed by ELISA technique using a TGF-β detection ELISA kit. The concentration of the extracellularly released TGF-β cytokine was determined by measuring the absorbance with a multiplate reader, and the results were graphed.

pSmad2/3 in Aspc1 cells = experiment: Western blotting of pSmad2/3 expression level in Aspc1 cells; format: cell-based; settings: TGF-β plus candidate peptide, 24 hours, FIG. 7
Protocol: Specifically, in order to analyze the time-dependent expression of phospho-Smad2/3 in cells by Western blotting assay, each of pancreatic cancer cell lines Bxpc3 and Aspc1 was treated with TGF-β cytokine at 50 ng/ml, and then cells obtained at different times were lysed by adding a cell lysis buffer containing a protease inhibitor (Thermo Scientific), and then sampled, thus preparing samples for Western blotting. Each of the samples was electrophoresed on SDS-PAGE gel, transferred to nitrocellulose membranes, and then blocked using skim milk powder. […] Then, the membranes were visualized by chemiluminescence using a Western ECL substrate (Thermo Scientific), and the obtained luminescence images were analyzed with Chemidoc (BioRad).
Specifically, each of the pancreatic cancer cell lines Aspc1, Bxpc3 and Panc1 was seeded in a 6-well plate at a density of 1×10^6 cells/well and cultured for one day. The next day, the cells were treated with TGF-β or TGF-β plus candidate peptide for 24 hours (control: 15% ACN—candidate peptide solvent, DMSO—P144 peptide solvent, P144), and the expression levels of pSmad2/3 and total Smad2/3 were analyzed by the Western blotting method described in Example 2.

Sequence | inhibition of extracellular release of TGF-β cytokine [1] | inhibition of expression level of pSmad2/3 (pSmad2/3 in Aspc1 cells)
FCLGPCPYIWCLDTF (P5) [candidate peptide derived from TGF-β, target TGFβRI/II] | directly inhibited the extracellular release of TGF-β cytokine | –
FCLGPCPYIWCLDTVLSL (P7) [candidate peptide derived from TGF-β, target TGFβRI/II] | directly inhibited the extracellular release of TGF-β cytokine | –
FCLGPCPYIWSLDTVLSL (P6) [candidate peptide derived from TGF-β, target TGFβRI/II] | directly inhibited the extracellular release of TGF-β cytokine | best ability to inhibit the expression level of pSmad2/3
TIVYYVVIKPKVEQ (P14) [candidate peptide derived from TGF-β, target TGFβRII] | directly inhibited the extracellular release of TGF-β cytokine | –
